Earlier results in patent publication US6415234B1, “Designing inhibitors for glycosyltransferases” (Glyco Design Inc., priority 1998, dated 2002).

Details: polarised continuum model

O=P(O)(O)OP(=O)(O)O [pyrophosphate dianion]
solvation free energy in water: -195.8 kcal/mol
